{"source": "patent US20100028872A1", "about": "“Methods for the Detection of Cancer” (priority 2006, published 2010)", "key": {"[1]": {"test_system": "ACHN papillary renal tumor cell line", "experiment": "Expression microarray of genes upregulated after 5Aza-dC and TSA treatment", "format": "cell-based, human", "details": "5 μM 5Aza-dC and 500 nM TSA, 14,802 gene microarray", "experimental": "(§1) 5Aza-dC (Sigma, St. Louis, Mo.) was dissolved in phosphate buffered saline (PBS) as a 5 mM stock solution, and stored in aliquots at −80° C. TSA (Wako, Richmond, Va.) was dissolved in absolute ethanol as a 330 μM stock solution, and stored at −20° C. The 4 renal cell lines were split to low density and exposed to 5Aza-dC at a final concentration of 5 μM, again 24 hours after the beginning of treatment and, if necessary, further treatment until the cells had undergone at least 2 doublings. The cells were also treated with TSA at a final concentration of 500 nM during the 24 hours prior to harvest for RNA extraction. Untreated (mock) cells were cultured over an identical period of time with an equivalent volume of PBS and, for the final 24 hours, with an equivalent volume of EtOH.\n(§2) Total RNA was isolated from drug-treated and untreated cultured cells using TRIZOL reagent (Invitrogen, Carlsbad, Calif.) and purified with the RNAeasy Mini Kit (Quiagen, Valencia, Calif.) combined with DNAase treatment. The RNA quality was confirmed by the ratio of 28S and 18S ribosomal RNA after agarose gel electrophoresis. Twenty μg of total RNA was reverse transcribed using oligo (dT)24 primer and Superscript II reverse transcriptase (Invitrogen, Carlsbad, Calif.) for 1.5 hours at 42° C.\n(§3) For each cell line, both treated and untreated cDNA was labeled with Cy3 or Cy5 (Amersham Biosciences, Piscataway, N.J.) and then hybridized to separate human 15k oligoarrays (MWG-Biotech Inc, High Point, N.C.) according to the manufacturer's recommendation for 18 hours at 42° C. The microarrays were processed and spotted in the DNA Microarray Facility at FCCC. The Gene list, Gene ID and Template files can be viewed at research.fccc.edu/facilities/microarray. In addition, microarray hybridization was performed with the opposite labels (dye flip) from each cell line. The hybridized slides were scanned using a GMS 428 Scanner (Affymetrix, Santa Clara, Calif.) to generate high-resolution images for both Cy3 and Cy5 channels. Image analysis was performed using the ImaGene software (BioDiscovery, Inc, El Segundo, Calif.).\n(§4) The genes corresponding to each oligonucleotide spotted on the array were identified using an optimized segmentation algorithm. […] Data were analyzed using the GeneSight software (BioDiscovery, Inc, El Segundo, Calif.) which includes background subtraction, data normalization (Lowess transformation), calculation of ratios, and statistical analysis of replicate spots and slides.\n(§5) Up-regulation of the 14,802 gene microarray was analyzed in 4 RCC lines treated with 5 μM of 5Aza-dC and 500 nM of TSA. […] The promoter region of each gene was also analyzed for the presence of a CpG island with the characteristics described by Takai and Jones (Takai et al. (2002) Proc. Natl. Acad. Sci., 99:3740-5). […]"}, "[2]": {"test_system": "786-0 clear cell renal tumor line", "experiment": "Expression microarray of genes upregulated after 5Aza-dC and TSA treatment", "format": "cell-based, human", "details": "5 μM 5Aza-dC and 500 nM TSA, 14,802 gene microarray", "experimental": "as §1, §2, §3, §4, §5"}, "[3]": {"test_system": "HRC51 clear cell renal tumor cell line", "experiment": "Expression microarray of genes upregulated after 5Aza-dC and TSA treatment", "format": "cell-based, human", "details": "5 μM 5Aza-dC and 500 nM TSA, 14,802 gene microarray", "experimental": "as §1, §2, §3, §4, §5"}, "[4]": {"test_system": "HRC59 papillary renal tumor cell line", "experiment": "Expression microarray of genes upregulated after 5Aza-dC and TSA treatment", "format": "cell-based, human", "details": "5 μM 5Aza-dC and 500 nM TSA, 14,802 gene microarray", "experimental": "as §1, §2, §3, §4, §5"}, "[5]": {"test_system": "SW48 colorectal tumor cell line", "experiment": "5Aza-dC dose optimisation: re-expression of silenced tumor suppressor genes on the expression array", "format": "cell-based", "details": "5 μM 5Aza-dC for at least two cell doubling times, with TSA (500 nM)", "text": "To determine the optimal 5Aza-dC dosage for robust detection of transcriptional reactivation on the microarray without excessive toxicity to the treated cells, the re-expression of 5 tumor suppressor genes, p16^INK4a, MLH1, MGMT, RARβ, and Timp-3, was examined at different doses of 5Aza-dC. The five TSG are well characterized as hypermethylated with associated silencing in the SW48 colorectal tumor cell line, which has a similar cell doubling time to the RCC lines (Wheeler et al. (1999) Proc. Natl. Acad. Sci., 96:10296-301; Esteller et al. (1999) Cancer Res., 59:793-97; Paz et al. (2003) Cancer Res., 63:1114-21; Herman et al. (1995) Cancer Res., 55:4525-30; Bachman et al. (1999) Cancer Res., 59:798-802). RNA was extracted from SW48 cell cultures after treatment with 1, 5, or 10 μM 5Aza-dC and TSA (500 nM). RT-PCR was then performed and the product labeled and hybridized to the expression array. […] The 5Aza-dC treatment was combined with TSA because there is good evidence that the processes of methylation and deacetylation interact to silence transcription, although TSA may have less synergistic effect at the relatively higher 5 μM 5Aza-dC dose employed than when combined with lower doses of 5Aza-dC (Cameron et al. (1999) Nat. Genet., 21:103-7; Wade et al. (2001) Oncogene, 20:3166-73). […]"}}, "data": [{"compound": "Nc1ncn([C@H]2C[C@H](O)[C@@H](CO)O2)c(=O)n1", "note": "[5Aza-dC, 5Aza-2deoxycytidine]", "values": [{"measurement": "genes upregulated at least 3-fold compared to the untreated cells", "setting": "[1]", "value": 111, "unit": "genes"}, {"measurement": "genes upregulated at least 3-fold compared to the untreated cells", "setting": "[2]", "value": 170, "unit": "genes"}, {"measurement": "genes upregulated at least 3-fold compared to the untreated cells", "setting": "[3]", "value": 112, "unit": "genes"}, {"measurement": "genes upregulated at least 3-fold compared to the untreated cells", "setting": "[4]", "value": 178, "unit": "genes"}, {"measurement": "toxicity as assessed by comparison of cell morphology and cell death between control and treated cells", "setting": "[5]", "value": "minimal toxicity"}, {"measurement": "re-expression of 5 tumor suppressor genes (p16INK4a, MLH1, MGMT, RARβ, Timp-3)", "setting": "[5]; SW48 cells", "value": "re-expression of the 5 TSG"}]}]}
